Data: ChEMBL document CHEMBL5236572, “Bioactive Aurones, Indanones, and Other Hemiindigoid Scaffolds: Medicinal Chemistry and Photopharmacology Perspectives” (J Med Chem, 2022)

Columns and labels:
[1] = biological target: Peroxisome proliferator-activated receptor gamma (Homo sapiens, UniProt P37231); assay: Binding affinity to PPARgamma (unknown origin) by competitive binding assay
[2] = tested on: Escherichia coli; assay: Antibacterial activity against Escherichia coli NCIB 86 assessed as zone of inhibition incubated for 24 hrs by agar well diffusion method; type: functional
[3] = tested on: Shigella dysenteriae; assay: Antibacterial activity against Shigella dysenteriae clinical isolate assessed as zone of inhibition incubated for 24 hrs by agar well diffusion method; type: functional
[4] = tested on: Geobacillus stearothermophilus; assay: Antibacterial activity against Geobacillus stearothermophilus NCIB 8222 assessed as zone of inhibition incubated for 24 hrs by agar well diffusion method; type: functional
[5] = tested on: Candida albicans; assay: […] activity against Candida albicans clinical isolate assessed as zone of inhibition incubated for 24 hrs by agar well diffusion method; type: functional
[6] = tested on: Bacillus subtilis; assay: Antibacterial activity against Bacillus subtilis NCIB 3610 assessed as zone of inhibition incubated for 24 hrs by agar well diffusion method; type: functional
[7] = tested on: Bacillus cereus; assay: Antibacterial activity against Bacillus cereus NCIB 6349 assessed as zone of inhibition incubated for 24 hrs by agar well diffusion method; type: functional
[8] = tested on: Klebsiella pneumoniae; assay: Antibacterial activity against Klebsiella pneumoniae NCIB 418 assessed as zone of inhibition incubated for 24 hrs by agar well diffusion method; type: functional
[9] = tested on: Pseudomonas aeruginosa; assay: Antibacterial activity against Pseudomonas aeruginosa NCIB 950 assessed as zone of inhibition incubated for 24 hrs by agar well diffusion method; type: functional
[10] = tested on: Staphylococcus aureus; assay: Antibacterial activity against Staphylococcus aureus NCIB 8588 assessed as zone of inhibition incubated for 24 hrs by agar well diffusion method; type: functional
[11] = tested on: Pseudomonas fluorescens; assay: Antibacterial activity against Pseudomonas fluorescens NCIB 3756 assessed as zone of inhibition incubated for 24 hrs by agar well diffusion method; type: functional
[12] = tested on: Bacillus anthracis; assay: Antibacterial activity against clinical isolate Bacillus anthracis assessed as zone of inhibition incubated for 24 hrs by agar well diffusion method; type: functional
[13] = tested on: THP-1; assay: Antiinflammatory activity against human THP-1 cells assessed as inhibition of LPS-stimulated TNF-alpha production at 40 uM incubated for 1 hrs followed by LPS stimulation for 4 hrs by ELISA; type: functional; settings: time 5 hrs
[14] = tested on: THP-1; assay: Antiinflammatory activity against human THP-1 cells assessed as inhibition of LPS-stimulated iNOS expression at 50 uM incubated for 1 hrs followed by LPS stimulation for 4 hrs by ELISA; type: functional; settings: time 5 hrs
[15] = tested on: RAW264.7; assay: cells; settings: Mus musculus
[16] = biological target: Amyloid-beta precursor protein (Homo sapiens, UniProt P05067); assay: Binding affinity to human brain amyloid-beta fibril
[17] = tested on: PMNL; assay: Anti-inflammatory activity in human polymorphonuclear neutrophils assessed as reduction in cell movement incubated for 24 hrs by fluorescence analysis; type: functional, cell-based
[18] = Selectivity index, ratio of CC50 for cytotoxicity against human C8166 cells to EC50 for antiviral activity against HIV-1 infected in human C8166 cells; type: toxicity, cell-based; settings: read-out: Ratio CC50/EC50
[19] = tested on: Human immunodeficiency virus 1; assay: Antiviral activity against HIV-1 infected in human C8166 cells assessed as reduction in virus-induced cytopathic effect by MTT assay; type: functional, organism-based; settings: Human immunodeficiency virus 1, C8166
[20] = tested on: SH-SY5Y; assay: Cytotoxicity against human SH-SY5Y cells assessed as reduction in cell viability by MTT assay; type: functional, cell-based
[21] = Cytotoxicity against human C8166 cells assessed as reduction in cell viability by MTT assay; type: toxicity, cell-based
[22] = tested on: NB-4; assay: Cytotoxicity against human NB-4 cells assessed as reduction in cell viability by MTT assay; type: functional, cell-based

Peroxisome proliferator-activated receptor gamma, sequence (P37231 whole entry, the tested form may be a part): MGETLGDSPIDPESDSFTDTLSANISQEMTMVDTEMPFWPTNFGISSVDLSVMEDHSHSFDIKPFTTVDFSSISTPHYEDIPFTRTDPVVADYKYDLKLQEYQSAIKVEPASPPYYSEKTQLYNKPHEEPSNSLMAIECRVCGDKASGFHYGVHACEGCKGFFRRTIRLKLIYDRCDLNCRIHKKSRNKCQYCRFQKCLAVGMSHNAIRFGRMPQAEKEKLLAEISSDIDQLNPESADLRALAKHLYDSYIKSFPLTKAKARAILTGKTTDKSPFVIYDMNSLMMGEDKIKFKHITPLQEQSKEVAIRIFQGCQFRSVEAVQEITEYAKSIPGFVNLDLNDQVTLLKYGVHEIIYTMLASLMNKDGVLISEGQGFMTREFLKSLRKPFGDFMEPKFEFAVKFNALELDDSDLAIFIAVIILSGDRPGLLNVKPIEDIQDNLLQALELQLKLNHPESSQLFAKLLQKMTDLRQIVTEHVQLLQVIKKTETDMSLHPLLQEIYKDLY
Amyloid-beta precursor protein, sequence (P05067 whole entry): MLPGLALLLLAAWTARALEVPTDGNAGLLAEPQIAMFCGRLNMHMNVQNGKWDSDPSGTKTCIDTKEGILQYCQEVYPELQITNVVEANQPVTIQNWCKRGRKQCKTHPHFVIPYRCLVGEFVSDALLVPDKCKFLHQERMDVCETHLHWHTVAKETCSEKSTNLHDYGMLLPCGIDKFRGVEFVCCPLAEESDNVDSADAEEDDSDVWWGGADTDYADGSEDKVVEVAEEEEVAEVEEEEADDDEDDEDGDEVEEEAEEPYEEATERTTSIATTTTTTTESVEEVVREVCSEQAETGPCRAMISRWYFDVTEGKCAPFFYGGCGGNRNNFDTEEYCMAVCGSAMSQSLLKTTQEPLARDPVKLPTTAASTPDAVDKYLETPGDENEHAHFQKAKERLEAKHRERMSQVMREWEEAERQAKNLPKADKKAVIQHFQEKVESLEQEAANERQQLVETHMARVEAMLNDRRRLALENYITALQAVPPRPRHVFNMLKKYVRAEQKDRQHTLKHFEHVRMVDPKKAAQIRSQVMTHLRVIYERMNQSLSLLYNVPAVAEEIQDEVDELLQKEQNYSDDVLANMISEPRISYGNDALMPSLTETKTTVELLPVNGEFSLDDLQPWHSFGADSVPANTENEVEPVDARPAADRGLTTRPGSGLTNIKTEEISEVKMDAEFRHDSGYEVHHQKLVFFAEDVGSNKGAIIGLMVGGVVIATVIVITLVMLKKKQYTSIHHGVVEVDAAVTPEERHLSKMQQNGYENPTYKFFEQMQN

COc1cc2c(cc1OC)C(=O)/C(=C/c1ccccc1OCCc1cccs1)C2
IC50 [1]: 0.62 µM

COc1ccc2c(c1)O/C(=C\c1cn(-c3ccccc3)nc1-c1cccs1)C2=O
inhibition zone (IZ) [2]: 13 mm
inhibition zone (IZ) [3]: 13 mm
inhibition zone (IZ) [4]: 13 mm
inhibition zone (IZ) [5]: 13 mm
inhibition zone (IZ) [6]: 13 mm
inhibition zone (IZ) [7]: 13 mm
inhibition zone (IZ) [8]: 13 mm
inhibition zone (IZ) [9]: 13 mm
inhibition zone (IZ) [10]: 13 mm
inhibition zone (IZ) [11]: 13 mm
inhibition zone (IZ) [12]: 13 mm

O=C1/C(=C/c2ccc(CO)o2)Oc2ccccc21
inhibition at 40 µM [13]: 50%
inhibition at 50 µM [14]: 30%

O=C1/C(=C/c2ccc(-c3ccc(CO)cc3)s2)Cc2ccccc21
IC50 [15]: 4 µM
Kd [16]: 0.39 µM

CCOC(OCC)c1ccc(/C=C2\Cc3ccccc3C2=O)cc1
IC50 [17]: 7 µM

COc1cc2c(cc1O)C(=O)/C(=C/c1ccc(C(C)=O)cc1)O2
selectivity ratio [18]: 82
IC50 [19]: 2.4 µM
IC50 [20]: 3.5 µM
CC50 [21]: > 200 µM
IC50 [22]: 3.4 µM
